{"source": "ChEMBL document CHEMBL1152116", "about": "“Novel benzimidazole-4-carboxylic acid derivatives as potent and selective 5-HT3 receptor ligands” (Bioorg Med Chem Lett, 1996)", "key": {"[1]": {"target": "5-hydroxytryptamine receptor 4 (Rattus norvegicus, UniProt Q62758)", "sequence (Q62758 whole entry)": "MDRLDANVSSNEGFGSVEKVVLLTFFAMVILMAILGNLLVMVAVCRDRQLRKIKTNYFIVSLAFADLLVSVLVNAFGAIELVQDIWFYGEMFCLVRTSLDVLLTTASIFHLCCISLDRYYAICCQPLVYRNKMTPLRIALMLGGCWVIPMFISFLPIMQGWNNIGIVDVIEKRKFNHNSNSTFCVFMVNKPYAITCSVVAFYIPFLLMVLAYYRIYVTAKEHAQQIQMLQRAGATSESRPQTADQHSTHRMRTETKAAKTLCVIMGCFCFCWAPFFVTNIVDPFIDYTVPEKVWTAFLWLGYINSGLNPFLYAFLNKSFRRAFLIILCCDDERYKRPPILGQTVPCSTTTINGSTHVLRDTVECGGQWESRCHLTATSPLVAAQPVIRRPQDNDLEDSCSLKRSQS", "assay": "Displacement of [3H]GR-113808 from rat striatum 5-hydroxytryptamine 4 receptor"}, "[2]": {"target": "T1, Serotonin 3 (5-HT3) receptor (Rattus norvegicus, UniProt P35563+Q9JJ16)", "T1 sequence (P35563 whole entry)": "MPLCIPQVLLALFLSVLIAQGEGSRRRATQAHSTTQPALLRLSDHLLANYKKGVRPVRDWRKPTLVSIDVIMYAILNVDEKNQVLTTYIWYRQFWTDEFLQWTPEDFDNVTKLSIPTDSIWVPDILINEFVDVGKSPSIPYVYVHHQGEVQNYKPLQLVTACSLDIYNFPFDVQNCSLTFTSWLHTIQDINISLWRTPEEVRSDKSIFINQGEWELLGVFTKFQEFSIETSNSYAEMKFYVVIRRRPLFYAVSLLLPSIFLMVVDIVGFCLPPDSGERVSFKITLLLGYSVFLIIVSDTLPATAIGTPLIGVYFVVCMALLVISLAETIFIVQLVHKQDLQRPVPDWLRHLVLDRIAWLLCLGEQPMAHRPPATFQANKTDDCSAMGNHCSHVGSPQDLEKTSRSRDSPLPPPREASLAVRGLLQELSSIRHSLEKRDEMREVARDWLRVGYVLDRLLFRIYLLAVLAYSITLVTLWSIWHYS", "T1 sequence (Q9JJ16 whole entry)": "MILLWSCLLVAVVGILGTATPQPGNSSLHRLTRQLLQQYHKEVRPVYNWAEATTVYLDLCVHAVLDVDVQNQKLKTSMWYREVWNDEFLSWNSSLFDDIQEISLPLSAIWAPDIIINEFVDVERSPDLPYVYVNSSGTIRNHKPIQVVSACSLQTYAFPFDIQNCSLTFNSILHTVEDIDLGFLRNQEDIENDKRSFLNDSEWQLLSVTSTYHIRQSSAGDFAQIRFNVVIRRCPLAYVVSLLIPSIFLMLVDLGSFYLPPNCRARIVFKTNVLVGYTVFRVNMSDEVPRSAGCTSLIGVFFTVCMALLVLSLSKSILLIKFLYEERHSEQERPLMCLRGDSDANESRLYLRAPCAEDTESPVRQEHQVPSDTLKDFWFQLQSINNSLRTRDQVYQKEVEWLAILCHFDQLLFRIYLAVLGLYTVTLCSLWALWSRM", "assay": "In vitro displacement of [3H]-LY 278584 from rat cerebral cortex 5-hydroxytryptamine 3 receptor", "type": "tissue-based"}}}
{"compound": "CN1[C@@H]2CC[C@H]1C[C@@H](OC(=O)c1c[nH]c3ccccc13)C2", "note": "[TROPISETRON]", "values": [{"measurement": "Ki", "setting": "[1]", "result": 63, "unit": "nM"}]}
{"compound": "CN1C2CCCC1CC(OC(=O)c1cccc3nc[nH]c13)C2", "note": "(stereo not given)", "values": [{"measurement": "Ki", "setting": "[1]", "result": "> 10000", "unit": "nM"}, {"measurement": "Ki", "setting": "[2]", "result": 129, "unit": "nM"}]}
{"compound": "CN1C2CCCC1CC(OC(=O)c1cc(Cl)cc3[nH]cnc13)C2", "note": "(stereo not given)", "values": [{"measurement": "Ki", "setting": "[1]", "result": "> 1000", "unit": "nM"}, {"measurement": "Ki", "setting": "[2]", "result": 4.9, "unit": "nM"}]}
{"compound": "CN1C2CCCC1CC(NC(=O)c1cccc3[nH]cnc13)C2", "note": "(stereo not given)", "values": [{"measurement": "Ki", "setting": "[1]", "result": "> 1000", "unit": "nM"}, {"measurement": "Ki", "setting": "[2]", "result": 6.1, "unit": "nM"}]}
{"compound": "CN1CCC(NC(=O)c2cccc3[nH]cnc23)CC1", "values": [{"measurement": "Ki", "setting": "[1]", "result": 719, "unit": "nM"}, {"measurement": "Ki", "setting": "[2]", "result": 145, "unit": "nM"}]}
{"compound": "O=C(NC1CN2CCC1CC2)c1cc(Cl)cc2nc[nH]c12", "note": "(stereo not given)", "values": [{"measurement": "Ki", "setting": "[1]", "result": 168, "unit": "nM"}, {"measurement": "Ki", "setting": "[2]", "result": 0.29, "unit": "nM"}]}
{"compound": "CN1CCC(OC(=O)c2cccc3nc[nH]c23)CC1", "values": [{"measurement": "Ki", "setting": "[1]", "result": "> 10000", "unit": "nM"}, {"measurement": "Ki", "setting": "[2]", "result": "> 1000", "unit": "nM"}]}
{"compound": "CN1C2CCCC1CC(NC(=O)c1cc(Cl)cc3nc[nH]c13)C2", "note": "(stereo not given)", "values": [{"measurement": "Ki", "setting": "[1]", "result": 167, "unit": "nM"}, {"measurement": "Ki", "setting": "[2]", "result": 154, "unit": "nM"}]}
{"compound": "COc1cc(N)c(Cl)cc1C(=O)NC1CN2CCC1CC2", "note": "(stereo not given) [ZACOPRIDE]", "values": [{"measurement": "Ki", "setting": "[1]", "result": 158, "unit": "nM"}]}
{"compound": "CN1CCC(NC(=O)c2cc(Cl)cc3[nH]cnc23)CC1", "values": [{"measurement": "Ki", "setting": "[1]", "result": 54, "unit": "nM"}, {"measurement": "Ki", "setting": "[2]", "result": 29.5, "unit": "nM"}]}
{"compound": "O=C(NC1CN2CCC1CC2)c1cccc2nc[nH]c12", "note": "(stereo not given)", "values": [{"measurement": "Ki", "setting": "[1]", "result": "> 1000", "unit": "nM"}, {"measurement": "Ki", "setting": "[2]", "result": 3.7, "unit": "nM"}]}
